The source of these data is PubChem BioAssay AID330 (DTP/NCI, 2004).

The assay relates to P388 leukemia ip, CD2F1 mice, survival T/C. Nature of the assay: NCI In Vivo Anticancer Drug Screen. Data for tumor model P388 Leukemia (intraperitoneal) in CD2F1 (CDF1) mice. As to conditions: endpoint: median survival time, higher = longer survival. The procedure, abridged:
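Mice carrying the transplanted tumor received test compound or vehicle. Survival was recorded in each group, and the value is the treated-group measurement divided by that of the vehicle-treated control group.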

Where [1] appears, read: dose: 50.0 mg/kg/injection, schedule: Q01DX005 (ip), vehicle: Klucel (hydroxypropylcellulose) (HPC).
Where [2] appears, read: dose: 100.0 mg/kg/injection, schedule: Q01DX005 (ip), vehicle: Klucel (hydroxypropylcellulose) (HPC).
[3] abbreviates: dose: 200.0 mg/kg/injection, schedule: Q01DX005 (ip), vehicle: Klucel (hydroxypropylcellulose) (HPC).
[4] abbreviates: dose: 50.0 mg/kg/injection, schedule: Q01DX001 (ip), vehicle: Klucel (hydroxypropylcellulose) (HPC).
Where [5] appears, read: dose: 50.0 mg/kg/injection, schedule: Q04DX002 (ip), vehicle: saline with Tween-80.
Setting [6] is: dose: 100.0 mg/kg/injection, schedule: Q04DX002 (ip), vehicle: saline with Tween-80.
Where [7] appears, read: dose: 200.0 mg/kg/injection, schedule: Q04DX002 (ip), vehicle: saline with Tween-80.
[8] abbreviates: dose: 100.0 mg/kg/injection, schedule: Q01DX009 (ip), vehicle: saline.
The mark [9] stands for this setting: dose: 200.0 mg/kg/injection, schedule: Q01DX009 (ip), vehicle: saline.

Where “and” joins values, the source holds several entries; their conditions need not be identical. Identical values can stand only once. Toxic doses and inconclusive results are not listed. Peptide text beside a SMILES is read from it. * marks the point of attachment. Cbz = O=C(OCc1ccccc1)*

For the compound `CC(=O)NC(c1nc2cc(C)c(C)cc2[nH]1)c1nc2cc(C)c(C)cc2[nH]1`, the T/C is, setting by setting: under setting [1], 101 % of control; under setting [2], 106 % of control; under setting [3], 110 % of control.

For the compound `COC(=O)/C(Br)=C/N(Cc1ccccc1)Cc1ccccc1`, the T/C is 110 % of control (dose: 100.0 mg/kg/injection, schedule: Q01DX009 (ip), vehicle: saline with Tween-80); 95 % of control (dose: 100.0 mg/kg/injection, schedule: Q04DX003 (ip), vehicle: saline with Tween-80); 100 % of control (dose: 200.0 mg/kg/injection, schedule: Q01DX009 (ip), vehicle: saline with Tween-80); 95 % of control (dose: 200.0 mg/kg/injection, schedule: Q04DX003 (ip), vehicle: saline with Tween-80); 110 % of control (dose: 400.0 mg/kg/injection, schedule: Q01DX009 (ip), vehicle: saline with Tween-80); 95 % of control (dose: 400.0 mg/kg/injection, schedule: Q04DX003 (ip), vehicle: saline with Tween-80).

With `COC(=O)/C(=C\C[C@@H]1CCCC[C@H]1O)CC[Se]c1ccccc1`, the T/C was 108 % of control (dose: 50.0 mg/kg/injection, schedule: Q01DX009 (ip), vehicle: distilled water + Tween-80 + alcohol); 103 % of control (dose: 100.0 mg/kg/injection, schedule: Q01DX009 (ip), vehicle: distilled water + Tween-80 + alcohol); 98 % of control (dose: 200.0 mg/kg/injection, schedule: Q01DX009 (ip), vehicle: distilled water + Tween-80 + alcohol).

Regarding `NC1(c2ccccc2)CC2CCC1C2` (centres undefined), the T/C by setting is: (dose: 12.5 mg/kg/injection, schedule: Q01DX001 (ip), vehicle: Klucel (hydroxypropylcellulose) (HPC)) 100 % of control; (dose: 25.0 mg/kg/injection, schedule: Q01DX001 (ip), vehicle: Klucel (hydroxypropylcellulose) (HPC)) 100 % of control; under setting [4], 100 % of control.

For the compound `O=S(=O)(O)C1=CC(=N/Br)/C=CC/1=N\Br`, the T/C by setting is: (dose: 50.0 mg/kg/injection, schedule: Q01DX005 (ip), vehicle: saline) 118 % of control and 119 % of control; (dose: 100.0 mg/kg/injection, schedule: Q01DX005 (ip), vehicle: saline) 115 % of control and 121 % of control; (dose: 200.0 mg/kg/injection, schedule: Q01DX005 (ip), vehicle: saline) 118 % of control and 121 % of control.

Turning to `COc1cc([C@@H]2c3cc(O)c(OC)cc3C[C@H]3C(=O)OC[C@@H]23)ccc1O`, the T/C by setting is: under setting [1], 96 % of control; under setting [2], 96 % of control; under setting [3], 100 % of control.

With `Cc1nc2c(cnn2C)c(=O)n1C(C)C`, the T/C runs as follows: under setting [1], 104 % of control; under setting [2], 112 % of control; under setting [3], 111 % of control.

As for `[Ni+2].[O-]c1ccccc1C=NCCCCCCN=Cc1ccccc1[O-]`, the T/C was 94 % of control under setting [5], 93 % of control under setting [6] and 93 % of control under setting [7].

For `COC(=O)C(C)(OCc1ccccc1)C(C)C1CO1` (centres undefined), the T/C is 100 % of control (dose: 50.0 mg/kg/injection, schedule: Q01DX005 (ip), vehicle: saline with Tween-80); 115 % of control (dose: 100.0 mg/kg/injection, schedule: Q01DX005 (ip), vehicle: saline with Tween-80); 113 % of control (dose: 200.0 mg/kg/injection, schedule: Q01DX005 (ip), vehicle: saline with Tween-80).

For the compound `COc1cccc2c1C(=O)c1c(O)c3c(c(O)c1C2=O)CC(O)(C(O)CO)CC3OC1CC(N2CCOCC2C#N)C(O)C(C)O1` (centres undefined), the T/C (dose: 0.2 mg/kg/injection, schedule: Q04DX003 (ip), vehicle: water) is 176 % of control; the T/C (dose: 0.8 mg/kg/injection, schedule: Q04DX003 (ip), vehicle: water) was 89 % of control; the T/C (dose: 6.25 micrograms/kg/injection, schedule: Q04DX003 (ip), vehicle: water) is 101 % of control; the T/C (dose: 12.5 micrograms/kg/injection, schedule: Q04DX003 (ip), vehicle: water) was 107 % of control and 113 % of control; the T/C (dose: 25.0 micrograms/kg/injection, schedule: Q04DX003 (ip), vehicle: water) is 106 % of control and 117 % of control; the T/C (dose: 50.0 micrograms/kg/injection, schedule: Q04DX003 (ip), vehicle: water) is 119 % of control and 120 % of control. Besides, the T/C reads like this: (dose: 100.0 micrograms/kg/injection, schedule: Q04DX003 (ip), vehicle: water) 124 % of control; (dose: 200.0 micrograms/kg/injection, schedule: Q04DX003 (ip), vehicle: water) 124 % of control.

With `CN(C)Cc1ncccc1O`, the T/C was 102 % of control and 95 % of control under setting [8]; 100 % of control and 112 % of control under setting [9]; 113 % of control (dose: 400.0 mg/kg/injection, schedule: Q01DX009 (ip), vehicle: saline).

In the case of `CCC(C)C(NC(=O)OCc1ccccc1)C(=O)NC(CCSC)C(=O)O` (stereo not drawn) (Cbz-Ile-Met-OH; configuration not given here), the T/C under setting [1] was 99 % of control, the T/C under setting [2] is 100 % of control and the T/C under setting [3] was 96 % of control.

For the compound `CCCCC[C@@H]1CCCC2C1CC[C@@H](CCCCCI)N2C(=O)OCC(Cl)(Cl)Cl` (some centres undefined), the T/C reads like this: under setting [6], 100 % of control; under setting [7], 100 % of control; (dose: 400.0 mg/kg/injection, schedule: Q04DX002 (ip), vehicle: saline with Tween-80) 105 % of control.

For `N#CCCOCC(COCCC#N)OCCC#N`, the T/C is, setting by setting: (dose: 50.0 mg/kg/injection, schedule: Q01DX009 (ip), vehicle: saline) 105 % of control; under setting [8], 92 % of control; under setting [9], 102 % of control.

For `Brc1nsc(SSc2nc(Br)ns2)n1`, the T/C was 103 % of control under setting [1], 103 % of control under setting [2] and 102 % of control under setting [3].

Take `CCOc1ccc(N=Nc2c(O)n(-c3ccccc3Cl)c(=S)n(-c3ccc(OC)cc3)c2=O)cc1`: the T/C reads like this: under setting [4], 97 % of control; (dose: 100.0 mg/kg/injection, schedule: Q01DX001 (ip), vehicle: Klucel (hydroxypropylcellulose) (HPC)) 102 % of control; (dose: 200.0 mg/kg/injection, schedule: Q01DX001 (ip), vehicle: Klucel (hydroxypropylcellulose) (HPC)) 97 % of control.

As for `CN(C)/C=C/C=C1\CCCC1=O`, the T/C by setting is: under setting [5], 103 % of control; under setting [6], 100 % of control; under setting [7], 108 % of control.

Take `CCOC(=O)c1cnc2c(ccc3cc(OC)ccc32)c1NCCCN(CC)CC`: the T/C was 97 % of control (dose: 25.0 mg/kg/injection, schedule: Q01DX005 (ip), vehicle: Klucel (hydroxypropylcellulose) (HPC)); 97 % of control under setting [1]; 100 % of control under setting [2]; 97 % of control under setting [3].

In the case of `CC1(C)CN(C2CCCCC2)CN2C1OCC2(C)C` (centres undefined), the T/C (dose: 80.0 mg/kg/injection, schedule: Q01DX009 (ip), vehicle: saline with Tween-80) is 117 % of control.

Take `Nc1ncnc2nc(-c3ccccc3)[nH]c12`: the T/C by setting is: (dose: 60.0 mg/kg/injection, schedule: Q01DX005 (ip), vehicle: saline with Tween-80) 102 % of control; (dose: 120.0 mg/kg/injection, schedule: Q01DX005 (ip), vehicle: saline with Tween-80) 100 % of control; (dose: 240.0 mg/kg/injection, schedule: Q01DX005 (ip), vehicle: saline with Tween-80) 105 % of control.

With `COc1cccc2c1C(=O)c1c(O)c3c(c(O)c1C2=O)C[C@@](O)(C(C)=O)C[C@@H]3OC1CC(N(C)Cc2ccccc2)C(O)C(C)O1` (some centres undefined), the T/C runs as follows: (dose: 3.13 mg/kg/injection, schedule: Q04DX003 (ip), vehicle: distilled water + Tween-80) 111 % of control; (dose: 6.25 mg/kg/injection, schedule: Q04DX003 (ip), vehicle: distilled water + Tween-80) 101 % of control; (dose: 12.5 mg/kg/injection, schedule: Q04DX003 (ip), vehicle: distilled water + Tween-80) 118 % of control; (dose: 25.0 mg/kg/injection, schedule: Q04DX003 (ip), vehicle: distilled water + Tween-80) 172 % of control.

`CCCCCCOc1cccc(OCCCC[N+]2(CC)CCCCC2)c1`: the T/C (dose: 1.56 mg/kg/injection, schedule: Q01DX009 (ip), vehicle: saline) was 96 % of control; the T/C (dose: 3.12 mg/kg/injection, schedule: Q01DX009 (ip), vehicle: saline) is 105 % of control; the T/C (dose: 6.25 mg/kg/injection, schedule: Q01DX009 (ip), vehicle: saline) was 91 % of control.
